{"source": "ChEMBL document CHEMBL5352435", "about": "“Recent two-year advances in anti-dengue small-molecule inhibitors” (Eur J Med Chem, 2022)", "key": {"dengue virus type 4 [1]": {"system": "dengue virus type 4", "assay": "Antiviral activity against DENV4 infected in Huh-7 cells assessed as inhibition of virus induced cytopathic effect incubated for 72 hrs by Hoechst 33342 staining based immunofluorescence assay", "type": "functional, organism-based", "settings": "Huh-7, 72 h"}, "Nonstructural protein 3": {"target": "Nonstructural protein 3 (Zika virus, UniProt A0A024AXB9)", "sequence (A0A024AXB9 whole entry)": "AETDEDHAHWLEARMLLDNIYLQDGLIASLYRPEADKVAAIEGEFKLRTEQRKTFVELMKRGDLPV", "assay": "Inhibition of recombinant ZIKV NS2B-NS3 protease using Bz-Nle-K-K-R-AMC as substrate incubated for 1 hr by fluorescence-based microplate reader assay"}, "dengue virus type 2 [2]": {"system": "dengue virus type 2", "assay": "Antiviral activity against DENV2 New Guinea C expressing […] reporter plasmid infected in human Huh-7 cells assessed as inhibition of viral replication incubated for 48 hrs by nanoluciferase assay", "type": "functional, organism-based", "settings": "Huh-7, 48 h"}, "[3]": {"assay": "Cytotoxicity against human Huh-7 cells assessed as reduction in cell viability incubated for 48 hrs by AlamarBlue assay", "type": "toxicity, cell-based"}, "dengue virus type 2 [4]": {"system": "dengue virus type 2", "assay": "Antiviral activity against DENV2 New Guinea C infected in monkey LLC-MK2 cells assessed as inhibition of plaque formation incubated for 72 hrs by plaque titration assay", "type": "functional, organism-based", "settings": "LLC-MK2, 72 h"}, "dengue virus type 2 [5]": {"system": "dengue virus type 2", "assay": "Antiviral activity against DENV2 New Guinea C infected in golden hamster BHK-21 cells assessed as inhibition of plaque formation and measured after 22 hrs by crystal violet based plaque assay", "type": "functional, organism-based", "settings": "BHK-21, 22 h"}, "dengue virus type 2 [6]": {"system": "dengue virus type 2", "assay": "Antiviral activity against DENV2 New Guinea C infected in Huh-7 cells assessed as inhibition of virus induced cytopathic effect incubated for 3 to 7 days by Neutral red assay", "type": "functional, organism-based"}, "Genome polyprotein [7]": {"target": "T1, Genome polyprotein (dengue virus type 2, UniProt P29990)", "T1 sequence (P29990 1346-1475 limits assumed)": "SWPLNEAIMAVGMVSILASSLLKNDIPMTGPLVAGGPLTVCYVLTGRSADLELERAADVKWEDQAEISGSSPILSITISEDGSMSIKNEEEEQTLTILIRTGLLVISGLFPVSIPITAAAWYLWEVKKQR", "T1 sequence (P29990 1476-2093 limits assumed)": "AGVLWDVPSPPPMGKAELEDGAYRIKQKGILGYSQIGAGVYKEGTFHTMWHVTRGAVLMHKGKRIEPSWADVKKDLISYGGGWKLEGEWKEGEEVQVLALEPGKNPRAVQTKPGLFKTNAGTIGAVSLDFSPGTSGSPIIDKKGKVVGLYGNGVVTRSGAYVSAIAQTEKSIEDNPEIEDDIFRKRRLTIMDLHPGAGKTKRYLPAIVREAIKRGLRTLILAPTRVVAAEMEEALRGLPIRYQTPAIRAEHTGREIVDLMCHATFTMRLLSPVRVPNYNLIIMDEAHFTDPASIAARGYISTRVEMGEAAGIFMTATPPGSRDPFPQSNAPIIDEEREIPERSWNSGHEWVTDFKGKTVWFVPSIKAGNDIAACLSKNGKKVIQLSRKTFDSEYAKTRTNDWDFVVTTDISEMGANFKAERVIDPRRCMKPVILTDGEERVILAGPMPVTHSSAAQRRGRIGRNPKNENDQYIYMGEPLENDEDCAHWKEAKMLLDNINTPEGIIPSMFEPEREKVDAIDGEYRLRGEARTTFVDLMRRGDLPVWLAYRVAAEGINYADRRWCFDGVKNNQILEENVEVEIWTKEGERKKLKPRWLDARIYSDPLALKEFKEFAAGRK", "assay": "Inhibition of DENV2 NS2B (48 to 100 residues)/NS3 (14 to 185 residues) protease expressed in Escherichia coli BL21 (DE3) using Bz-Nle-Lys-Arg-Arg-AMC as substrate preincubated for 30 mins followed by substrate addition by fluorescence assay"}, "[8]": {"assay": "Cytotoxicity against human Huh-7 cells assessed as reduction in cell viability incubated for 24 hrs by PrestoBlue assay", "type": "toxicity, cell-based"}, "dengue virus type 2 [9]": {"system": "dengue virus type 2", "assay": "Antiviral activity against DENV2 16681 infected in human Huh-7 cells assessed as inhibition of viral titer incubated for 24 hrs by focus-forming assay", "type": "functional, organism-based", "settings": "Dengue virus, 16681, Huh-7, 24 h"}, "dengue virus type 2 [10]": {"system": "dengue virus type 2", "assay": "Antiviral activity against DENV2 New Guinea C infected in golden hamster BHK-21 cells assessed as inhibition of plaque formation incubated for 4 days by crystal violet staining based microscopy", "type": "functional, organism-based", "settings": "BHK-21, 96 h"}, "Genome polyprotein [11]": {"target": "T1, Genome polyprotein", "assay": "Inhibition of DENV2 NS2B/NS3 protease using Boc-Gly-Arg-Arg-MCA as substrate preincubated for 10 mins followed by substrate addition and measured after 60 mins by fluorescence microplate reader assay"}, "dengue virus type 2 [12]": {"system": "dengue virus type 2", "assay": "Antiviral activity against DENV2 Thailand/16681/1984 infected in golden hamster BHK-21 cells assessed as inhibition of virus induced cytopathic effect incubated for 4 to 5 days by microscopy", "type": "functional, organism-based"}, "dengue virus type 3 [13]": {"system": "dengue virus type 3", "assay": "Antiviral activity against DENV3 H87 assessed as reduction in viral RNA copy number preincubated for 1 hrs followed by infection in Vero cells and measured after 4 days by qRT-PCR analysis", "type": "functional, organism-based"}, "dengue virus type 2 [14]": {"system": "dengue virus type 2", "assay": "Antiviral activity against DENV2 assessed as inhibition of viral replication", "type": "functional, organism-based"}, "dengue virus type 2 [15]": {"system": "dengue virus type 2", "assay": "Antiviral activity against DENV2 infected in African green monkey Vero cells assessed as inhibition of viral titer preincubated for 16 hrs followed by viral infection and measured after 36 hrs by focus-forming assay", "type": "functional, organism-based"}, "dengue virus type 3 [16]": {"system": "dengue virus type 3", "assay": "Antiviral activity against DENV3 assessed as inhibition of viral replication", "type": "functional, organism-based"}, "dengue virus type 1": {"system": "dengue virus type 1", "assay": "Antiviral activity against DENV1 assessed as inhibition of viral replication", "type": "functional, organism-based"}, "dengue virus type 4 [17]": {"system": "dengue virus type 4", "assay": "Antiviral activity against DENV4 assessed as inhibition of viral replication", "type": "functional, organism-based"}, "dengue virus type 2 [18]": {"system": "dengue virus type 2", "assay": "Antiviral activity against DENV2 infected in mouse assessed as survival rate at 30 mg/kg,po", "type": "functional"}}, "note": "*1 amine or outer side, *2 acyl side, *3 side chain or, on linkers, in order; H or OH if unused. Where a SMILES comes first, the peptide text is derived from it. Bridges are numbered along the chain shown (N, C = ends). [ ]: non-standard residue; d: D form. The star is where a group is joined. hTyr(3S-OH,4S-OH,3'-OSO3H) = N[C@H](C(=O)O)[C@H](O)[C@@H](O)c1ccc(O)c(OS(=O)(=O)O)c1; Orn(4R-OH,5R-OH) = O=C([C@H](C[C@@H](O)[C@@H](O)N[*:3])N[*:1])[*:2]; Pro(3S-OH,4S-Me) = C[C@H]1CN[C@H](C(=O)O)[C@H]1O; X1 = CCCCCOc1ccc(-c2cc(-c3ccc(C(=O)*)cc3)no2)cc1; Gln(3R-OH) = NC(=O)C[C@@H](O)[C@H](N)C(=O)O; Hyp = O=C(O)[C@@H]1C[C@@H](O)CN1"}
{"smiles": "O=[N+]([O-])c1ccc(Nc2ccc3[nH]ncc3c2)nc1N1CCNCC1", "values": [{"measurement": "IC50", "setting": "dengue virus type 4 [1]", "value": 7.1, "unit": "µM"}, {"measurement": "IC50", "setting": "Nonstructural protein 3", "value": 1.5, "unit": "µM"}]}
{"smiles": "O=C1NCc2ccc(Nc3ccnc4ccc(Br)cc34)cc21", "values": [{"measurement": "EC50", "setting": "dengue virus type 2 [2]", "value": 3.6, "unit": "µM"}, {"measurement": "CC50 at 48 h", "setting": "[3]", "value": "> 10", "unit": "µM"}]}
{"smiles": "C#COc1ccc(-c2cc(=O)c3c(O)cc(O)cc3o2)cc1", "values": [{"measurement": "EC50", "setting": "dengue virus type 2 [4]", "value": 7.81, "unit": "µM"}]}
{"smiles": "Cc1ccc(C(=O)Nc2ccc(S(=O)(=O)O)c3cc(S(=O)(=O)O)cc(S(=O)(=O)O)c23)cc1NC(=O)c1cccc(NC(=O)Nc2cccc(C(=O)Nc3cc(C(=O)Nc4ccc(S(=O)(=O)O)c5cc(S(=O)(=O)O)cc(S(=O)(=O)O)c45)ccc3C)c2)c1", "note": "[SURAMIN HEXASODIUM]", "values": [{"measurement": "EC50", "setting": "dengue virus type 2 [5]", "value": 0.35, "unit": "µM"}]}
{"smiles": "CC1(C)Cc2sc(NC(=O)Cc3ccc(S(N)(=O)=O)cc3)c(C#N)c2CN1CC1CCCCC1", "values": [{"measurement": "EC50", "setting": "dengue virus type 2 [6]", "value": 0.023, "unit": "µM"}]}
{"smiles": "O=c1c(O)c(-c2cc(O)c(O)c(O)c2)oc2cc(O)cc(O)c12", "note": "[MYRICETIN]", "values": [{"measurement": "IC50", "setting": "Genome polyprotein [7]", "value": 8.46, "unit": "µM"}]}
{"smiles": "COc1ccc2[nH]cc(CCNC(C)=O)c2c1", "note": "[MELATONIN]", "values": [{"measurement": "CC50 at 24 h", "setting": "[8]", "value": 3170, "unit": "µM"}, {"measurement": "IC50", "setting": "dengue virus type 2 [9]", "value": 135, "unit": "µM"}]}
{"smiles": "Fc1cc2cn[nH]c2cc1Nc1ccnc2ccc(Br)cc12", "values": [{"measurement": "EC50", "setting": "dengue virus type 2 [2]", "value": 2.3, "unit": "µM"}, {"measurement": "CC50 at 48 h", "setting": "[3]", "value": "> 10", "unit": "µM"}]}
{"smiles": "Cc1cc2c(F)c(Oc3ncnn4cc(OC[C@@H](C)O)c(C)c34)ccc2[nH]1", "note": "[BRIVANIB]", "values": [{"measurement": "IC50", "setting": "dengue virus type 2 [10]", "value": 2.5, "unit": "µM"}]}
{"smiles": "O=C(CCCCCCCCc1ccc(O)cc1)c1c(O)cc(O)cc1O", "values": [{"measurement": "IC50", "setting": "Genome polyprotein [11]", "value": 7.55, "unit": "µM"}]}
{"smiles": "CCCCCOc1ccc(-c2cc(-c3ccc(C(=O)N[C@H]4C[C@@H](O)[C@@H](O)NC(=O)[C@@H]5[C@@H](O)[C@@H](C)CN5C(=O)[C@H]([C@H](O)CC(N)=O)NC(=O)[C@H]([C@H](O)[C@@H](O)c5ccc(O)c(OS(=O)(=O)O)c5)NC(=O)[C@@H]5C[C@@H](O)CN5C(=O)[C@H]([C@@H](C)O)NC4=O)cc3)no2)cc1", "note": "[MICAFUNGIN] (X1-[Orn(4R-OH,5R-OH)]T[Hyp][hTyr(3S-OH,4S-OH,3'-OSO3H)][Gln(3R-OH)][Pro(3S-OH,4S-Me)]; lactam 1-C)", "values": [{"measurement": "IC50", "setting": "dengue virus type 2 [12]", "value": 10.2, "unit": "µM"}]}
{"smiles": "COc1cc([C@H]2Oc3cc([C@H]4Oc5cc(O)cc(O)c5C(=O)[C@@H]4O)ccc3O[C@@H]2CO)ccc1O", "note": "[SILYBIN A]", "values": [{"measurement": "IC50", "setting": "dengue virus type 3 [13]", "value": 18.5, "unit": "µM"}]}
{"smiles": "CC(C)(C)[Si](C)(C)Oc1ccc([C@H]2N(Nc3ccc([N+](=O)[O-])cc3)C(=O)[C@@H]3Cc4ccccc4N32)cc1", "values": [{"measurement": "EC50", "setting": "dengue virus type 2 [14]", "value": 4.79, "unit": "µM"}]}
{"smiles": "COc1cc(/C=C(\\C#N)C(=O)c2ccc(O)c(O)c2)cc(I)c1O", "values": [{"measurement": "EC50", "setting": "dengue virus type 2 [5]", "value": 3, "unit": "µM"}]}
{"smiles": "Cc1ccc(O)c(NC(=O)CCc2ccccc2)c1", "values": [{"measurement": "IC50", "setting": "dengue virus type 2 [15]", "value": 1, "unit": "µM"}]}
{"smiles": "COc1cc(NC(C(=O)N2CCc3ccc(OC(F)(F)F)cc32)c2ccc(Cl)cc2)cc(OCCCC(=O)O)c1", "note": "(stereo not given)", "values": [{"measurement": "EC50", "setting": "dengue virus type 3 [16]", "value": "≤ 0.001", "unit": "µM"}, {"measurement": "EC50", "setting": "dengue virus type 1", "value": "≤ 0.001", "unit": "µM"}, {"measurement": "EC50", "setting": "dengue virus type 2 [14]", "value": "≤ 0.004", "unit": "µM"}, {"measurement": "EC50", "setting": "dengue virus type 4 [17]", "value": "≤ 0.006", "unit": "µM"}, {"measurement": "Activity", "setting": "dengue virus type 2 [18]", "value": 90, "unit": "%"}]}
{"smiles": "O=c1cc(-c2ccccc2)oc2cc(O)c(O)c(O)c12", "note": "[BAICALEIN]", "values": [{"measurement": "IC50", "setting": "dengue virus type 3 [13]", "value": 17.2, "unit": "µM"}]}
